Earlier results, collected in patent publication US20120195848A1, “STRONTIUM-CONTAINING BIOACTIVE BONE CEMENT” (The University of Hong Kong, priority 2011, published 2012).
Read-outs that look alike come from different tables or passages of the source.

Question: For `O=S(=O)([O-])[O-].[Ba+2]` [BaSO4, reference compound], which dissolution rate (20° C.) is on record?
Answer: Its dissolution rate is 0.0002448 g/100 mL.

Question: With `O=C([O-])[O-].[Sr+2]` [SrCO3, strontium carbonate] as the molecule, how does the dissolution rate (18° C.) read?
Answer: Its dissolution rate is 0.0011 g/100 ml.

Question: For `O=S(=O)([O-])[O-].[Sr+2]` [SrSO4, strontium sulfate], which dissolution rate (25° C.) is on record?
Answer: Its dissolution rate is 0.0135 g/100 mL.
